The results in this text go back to patent publication US10017514B2, “6,7-dihydropyrazolo[1,5-α]pyrazin-4(5H)-one compounds and their use as negative allosteric modulators of mGluR2 receptors” (Janssen Pharmaceutica NV, priority 2014, dated 2018).

One data set concerns the target T1, human mGlu2 receptor (Homo sapiens, UniProt Q14416).
T1 construct: expressed in transfected cells; host or cells: CHO cells (membrane preparation)
In words: [35S]GTPγS binding assay, mGluR2 negative allosteric modulation. The format is biochemical. The conditions noted are these: for Emax: maximal % inhibition relative to the control glutamate response (EC80 glutamate), read-out: GTPγS-hmGluR2 anGT Emax; for IC50: membranes from CHO cells transfected with human mGlu2 receptor, glutamate ~EC80 (60 μM), read-out: GTPγS-hmGluR2 anGT pIC50 (converted). As to the method: Total reaction volume was 200 μl. […] Membrane-bound radioactivity was counted in a Topcount.

In another data set the test system is rats. The data set is described as follows: Reversal of the effect of the mGluR2 PAM JNJ-42153605-induced inhibition of scopolamine-induced hyperlocomotion. The class given is in vivo, rat. The conditions noted are these: Rattus norvegicus; rats; PO, 60 min pretreatment; JNJ-42153605 20 mg/kg i.v. + scopolamine 0.16 mg/kg i.v.; criterion total distance >1500 cm in 30 min; read-out: SCOP JNJ-42153605 ED50. The method, then:
Motor activity was measured in microprocessor-based motor activity arenas (closed gray PVC cylinders with a height of 39 cm and a diameter of 31 cm). Each arena was placed on an infrared LED (8×8 LEDs) lit box (white PVC squared box; 40×40 cm^2; height 12.5 cm. An infrared-sensitive tube camera and a white light source were mounted to the ceiling above the observation chamber to track the animal. […] Noldus, Wageningen, The Netherlands). The intensity of the light within the activity cages (measured in the centre at the level of the floor) ranged between 4 and 8 LUX. The rats were pretreated with test compound or vehicle at 60 min before the start of the activity recordings and placed into individual cages. […] WO2010/130424; Cid et al. J. Med.

Bounds are passed on as bounds.

T1 sequence (Q14416 19-872): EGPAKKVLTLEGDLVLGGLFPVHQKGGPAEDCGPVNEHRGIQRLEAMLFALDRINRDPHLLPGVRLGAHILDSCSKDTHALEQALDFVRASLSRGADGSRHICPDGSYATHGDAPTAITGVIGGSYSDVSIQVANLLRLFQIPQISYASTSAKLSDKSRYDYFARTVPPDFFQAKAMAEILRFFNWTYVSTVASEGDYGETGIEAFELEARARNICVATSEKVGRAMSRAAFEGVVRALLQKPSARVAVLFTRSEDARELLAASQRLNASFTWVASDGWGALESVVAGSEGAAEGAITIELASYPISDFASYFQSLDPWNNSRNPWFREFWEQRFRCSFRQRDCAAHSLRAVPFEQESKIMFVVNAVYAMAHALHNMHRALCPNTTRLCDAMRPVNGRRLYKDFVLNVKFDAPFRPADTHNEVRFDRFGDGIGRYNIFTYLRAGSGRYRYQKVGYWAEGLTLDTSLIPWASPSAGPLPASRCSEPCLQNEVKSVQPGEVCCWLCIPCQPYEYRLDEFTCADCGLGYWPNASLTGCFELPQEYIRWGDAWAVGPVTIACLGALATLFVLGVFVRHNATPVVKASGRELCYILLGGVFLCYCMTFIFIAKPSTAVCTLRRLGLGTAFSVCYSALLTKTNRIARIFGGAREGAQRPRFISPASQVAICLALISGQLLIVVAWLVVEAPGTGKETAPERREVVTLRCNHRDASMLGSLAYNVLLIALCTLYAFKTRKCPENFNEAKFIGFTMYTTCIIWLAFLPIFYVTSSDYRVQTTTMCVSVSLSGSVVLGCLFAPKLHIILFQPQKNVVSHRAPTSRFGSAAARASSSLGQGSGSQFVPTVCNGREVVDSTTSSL

The Emax is the maximal effect, on the per cent scale that the assay sets. For orientation: melting point means the temperature, or range, at which the solid turns liquid. As a reminder, the ED50 is the midpoint of the dose-response relation. For the compound `Cc1cncc(-c2cc(-c3cnn4c3C(=O)N(c3ccc(C(F)(F)F)c(Cl)c3)C[C@@H]4C)no2)c1` [Co. No. 12, (7S)-5-[3-chloro-4-(trifluoromethyl)phenyl]-7-methyl-3-[5-(5-methyl-3-pyridyl)isoxazol-3-yl]-6,7-dihydropyrazolo[1,5-a]pyrazin-4-one], the melting point worked out at 168.58 °C. Besides, at human mGlu2 receptor, the maximal effect (Emax) came out at 108% and the IC50 was 6.17 nM. Further, the 50% effective dose (ED50) in the data set on rats was above 0.63 mg/kg.
The like results for `Cc1cc(N2C[C@H](C)n3ncc(-c4cc(-c5cccnc5)on4)c3C2=O)ccc1C(F)(F)F` [Co. No. 15, (7S)-7-methyl-5-[3-methyl-4-(trifluoromethyl)phenyl]-3-[5-(3-pyridyl)isoxazol-3-yl]-6,7-dihydropyrazolo[1,5-a]pyrazin-4-one] were, in that order, 120.21 °C, 108%, 5.5 nM and above 0.63 mg/kg.
The like results for `Cc1ccncc1-c1cc(-c2cnn3c2C(=O)N(c2ccc(C(F)(F)F)cc2)C[C@@H]3C)no1` [Co. No. 18, (7S)-7-Methyl-3-[5-(4-methyl-3-pyridyl)isoxazol-3-yl]-5-[4-(trifluoromethyl)phenyl]-6,7-dihydropyrazolo[1,5-a]pyrazin-4-one] were, in that order, 197.33 °C, 109%, 2.24 nM and 0.51 mg/kg.
With `Cc1ccncc1-c1cc(-c2cnn3c2C(=O)N(c2ccc(C(F)(F)F)c(Cl)c2)C[C@@H]3C)no1` [Co. No. 20, (7S)-5-[3-chloro-4-(trifluoromethyl)phenyl]-7-methyl-3-[5-(4-methyl-3-pyridyl)isoxazol-3-yl]-6,7-dihydropyrazolo[1,5-a]pyrazin-4-one], the melting point worked out at 149.63 °C. Further, at human mGlu2 receptor, the Emax amounted to 113% and the IC50 was 1.41 nM. In the data set on rats, the ED50 was 0.51 mg/kg.
The like results for `C[C@H]1CN(c2ccc(C(F)(F)F)c(Cl)c2)C(=O)c2c(-c3cc(-c4cncc(F)c4)on3)cnn21` [Co. No. 21, (7S)-5-[3-chloro-4-(trifluoromethyl)phenyl]-3-[5-(5-fluoro-3-pyridyl)isoxazol-3-yl]-7-methyl-6,7-dihydropyrazolo[1,5-a]pyrazin-4-one] were, in that order, 197.03 °C, 103%, 6.61 nM and above 0.63 mg/kg.
The like results for `Cc1ccncc1-c1cc(-c2cnn3c2C(=O)N(c2ccc(C(F)(F)F)c(C)c2)C[C@@H]3C)no1` [Co. No. 22, (7S)-7-methyl-3-[5-(4-methyl-3-pyridyl)isoxazol-3-yl]-5-[3-methyl-4-(trifluoromethyl)phenyl]-6,7-dihydropyrazolo[1,5-a]pyrazin-4-one] were, in that order, 171.25 °C, 110%, 2.09 nM and above 0.63 mg/kg.
